Experiment [1] concerns the target T1, Recombinant human c-Cbl (aa 47-435) (Homo sapiens, UniProt P22681).
T1 sequence (P22681 47-435): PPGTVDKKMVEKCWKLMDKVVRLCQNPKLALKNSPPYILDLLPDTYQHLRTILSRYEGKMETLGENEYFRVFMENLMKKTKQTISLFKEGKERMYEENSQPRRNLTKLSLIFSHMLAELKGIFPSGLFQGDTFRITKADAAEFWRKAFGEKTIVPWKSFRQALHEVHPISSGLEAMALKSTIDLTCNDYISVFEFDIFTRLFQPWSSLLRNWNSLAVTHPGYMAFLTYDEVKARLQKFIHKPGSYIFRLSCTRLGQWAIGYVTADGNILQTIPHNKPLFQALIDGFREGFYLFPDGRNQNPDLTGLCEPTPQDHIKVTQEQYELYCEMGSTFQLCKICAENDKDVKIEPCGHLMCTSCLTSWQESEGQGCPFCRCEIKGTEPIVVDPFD
Kind of experiment: c-Cbl Biochemical Assay (TR-FRET). The settings on record: hc-Cbl Biochemical Assay (TR-FRET); read-out: TR-FRET hcCbl IC50. Background: In TR-FRET formats the signal depends on donor and acceptor labels being close together.

In experiment [2] the target is Recombinant human Cbl-b (aa 36-427) (Homo sapiens, UniProt Q13191). Put plainly: Cbl-b Biochemical Assay (TR-FRET). The note with it: read-out: TR-FRET hCbl-b IC50.
Sequence of Recombinant human Cbl-b (aa 36-427) (Q13191 36-427): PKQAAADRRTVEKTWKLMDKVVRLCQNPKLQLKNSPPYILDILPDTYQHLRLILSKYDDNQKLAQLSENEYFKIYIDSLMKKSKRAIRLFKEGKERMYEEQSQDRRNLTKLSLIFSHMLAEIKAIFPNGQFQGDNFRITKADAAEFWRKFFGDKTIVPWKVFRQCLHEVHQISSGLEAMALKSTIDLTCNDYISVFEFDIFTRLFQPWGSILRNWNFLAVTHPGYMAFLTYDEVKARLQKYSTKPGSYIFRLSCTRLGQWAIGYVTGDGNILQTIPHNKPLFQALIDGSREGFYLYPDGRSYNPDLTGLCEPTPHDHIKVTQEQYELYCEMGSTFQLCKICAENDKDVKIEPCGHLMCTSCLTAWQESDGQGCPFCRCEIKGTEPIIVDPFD
Experiment [3] has as its system Jurkat (clone E6-1) cells with NFAT luciferase reporter. Put plainly: Jurkat reporter assay (NFAT Luciferase). Format: cell-based. The settings on record: Homo sapiens.
Setting [4] is: Jurkat NFAT luciferase reporter cells, anti-CD3 stimulation, 6 hr, read-out: Jurkat NFAT EC50.

Like-named read-outs stand apart in the source and are kept apart here. Bounds are passed on as bounds.

For the compound `CC(c1cc(C(F)(F)F)c2oc(-c3cccc(C4(Cc5nncn5C)COC4)c3)nc2c1)N1CCC2(CC2)C1` (stereo not drawn) [AAB-9, 5-(1-{5-Azaspiro[2.4]heptan-5-yl}ethyl)-2-(3-{3-[(4-methyl-1,2,4-triazol-3-yl)methyl]oxetan-3-yl}phenyl)-7-(trifluoromethyl)-1,3-benzoxazole], the IC50 in experiment [1] is 1000 to 10000 nM; in experiment [2] it was below 200 nM. Moreover, the EC50 in experiment [3] (setting [4]) lay in the range of 0.2 to 1 µM.

As for `C[C@H](c1cc(C(F)(F)F)c2oc(-c3cccc(C4(Cc5nncn5C)COC4)c3)nc2c1)N1CCC2(CC2)C1` [AAD-1, 5-[(1R)-1-{5-azaspiro[2.4]heptan-5-yl}ethyl]-2-(3-{3-[(4-methyl-1,2,4-triazol-3-yl)methyl]oxetan-3-yl}phenyl)-7-(trifluoromethyl)-1,3-benzoxazole], the IC50 was 1000 to 10000 nM in experiment [1] and below 200 nM in experiment [2]. Also, the EC50 in experiment [3] (setting [4]) was in the range of 0.2 to 1 µM.

As to `C[C@@H](c1cc(C(F)(F)F)c2oc(-c3cccc(C4(Cc5nncn5C)COC4)c3)nc2c1)N1CCC2(CC2)C1` [AAE-1, 5-[(1S)-1-{5-azaspiro[2.4]heptan-5-yl}ethyl]-2-(3-{3-[(4-methyl-1,2,4-triazol-3-yl)methyl]oxetan-3-yl}phenyl)-7-(trifluoromethyl)-1,3-benzoxazole], the IC50 in experiment [1] and in experiment [2] was below 200 nM in each case. Moreover, the EC50 in experiment [3] (setting [4]) was 0.2 to 1 µM.

Regarding `CCNc1cc(-c2ccccc2-c2nncn2C)cc(-c2nc3cc(CN4CCC5(CC5)C4)cc(C(F)(F)F)c3[nH]2)n1` [AAG-4, 6-(6-{5-Azaspiro[2.4]heptan-5-ylmethyl}-4-(trifluoromethyl)-3H-1,3-benzodiazol-2-yl)-N-ethyl-4-[2-(4-methyl-1,2,4-triazol-3-yl)phenyl]pyridin-2-amine], the results for the IC50 in experiment [1] and in experiment [2] were 10000 to 50000 nM and 200 to 1000 nM, respectively. The EC50 in experiment [3] (setting [4]) lay in the range of 1 to 10 µM.

As for `C[C@H]1CCCN(Cc2cc(C(F)(F)F)c3[nH]c(-c4cccc(-c5ccccc5-c5nncn5C)c4)nc3c2)C1` [AAI-5, 2-[2′-(4-Methyl-1,2,4-triazol-3-yl)-[1,1′-biphenyl]-3-yl]-6-{[(3S)-3-methylpiperidin-1-yl]methyl}-4-(trifluoromethyl)-3H-1,3-benzodiazole], the IC50 in experiment [1] was 10000 to 50000 nM; in experiment [2] it was 200 to 1000 nM. Further, the EC50 in experiment [3] (setting [4]) lay in the range of 1 to 10 µM.

For the compound `Cn1cnnc1-c1cc(F)ccc1-c1cccc(-c2nc3cc(CN4CCC5(CC5)C4)cc(C(F)(F)F)c3o2)c1` [AAL-5, 5-((5-Azaspiro[2.4]heptan-5-yl)methyl)-2-(4′-fluoro-2′-(4-methyl-4H-1,2,4-triazol-3-yl)-[1,1′-biphenyl]-3-yl)-7-(trifluoromethyl) benzo[d]oxazole], the IC50 was 1000 to 10000 nM in experiment [1] and below 200 nM in experiment [2]. In addition, the EC50 in experiment [3] (setting [4]) lay in the range of 1 to 10 µM.

As to `C[C@H]1CCCN(Cc2cc(C(F)(F)F)c3oc(-c4cc(-c5ccccc5-c5nncn5C)cc(C5CC5)n4)nc3c2)C1` [AAP-7, 2-{6-Cyclopropyl-4-[2-(4-methyl-1,2,4-triazol-3-yl)phenyl]pyridin-2-yl}-5-{[(3S)-3-methylpiperidin-1-yl]methyl}-7-(trifluoromethyl)-1,3-benzoxazole], the IC50 in experiment [1] was 1000 to 10000 nM; in experiment [2] it was below 200 nM. Besides, the concentration for a half-maximal effect (EC50) in experiment [3] (Jurkat, 6 h, read-out: Jurkat NFAT EC50 (μM)) was 0.2 to 1 µM.

As to `C[C@@H]1CCCN(Cc2cc(C(F)(F)F)c3oc(-c4cc(-c5ccccc5-c5nncn5C)cc(C5CC5)n4)nc3c2)C1` [AAQ-2, 2-{6-Cyclopropyl-4-[2-(4-methyl-1,2,4-triazol-3-yl)phenyl]pyridin-2-yl}-5-{[(3R)-3-methylpiperidin-1-yl]methyl}-7-(trifluoromethyl)-1,3-benzoxazole], the IC50 was 1000 to 10000 nM in experiment [1] and 200 to 1000 nM in experiment [2]. Also, the EC50 in experiment [3] (setting [4]) fell in the range of 1 to 10 µM.

Regarding `Cn1cnnc1-c1ccccc1-c1cc(-c2nc3cc(CN4CCC5(CC5)C4)cc(C(F)(F)F)c3o2)nc(C2CC2)c1` [AAR-2, 5-{5-Azaspiro[2.4]-heptan-5-ylmethyl}-2-{6-cyclopropyl-4-[2-(4-methyl-1,2,4-triazol-3-yl)-phenyl]-pyridin-2-yl}-7-(trifluoromethyl)-1,3-benzoxazole], the IC50 in experiment [1] is 1000 to 10000 nM; in experiment [2] it was below 200 nM. The EC50 in experiment [3] (setting [4]) is 1 to 10 µM.

For the compound `Cn1cnnc1-c1ccccc1-c1cc(-c2nc3cc(CN4CCC5(CC5)C4)cc(C(F)(F)F)c3[nH]2)nc(C2CC2)c1` [AAS-2, 5-((5-Azaspiro[2.4]heptan-5-yl)methyl)-2-(6-cyclopropyl-4-(2-(4-methyl-4H-1,2,4-triazol-3-yl)phenyl)pyridin-2-yl)-7-(trifluoromethyl)-1H-benzo[d]imidazole], the IC50 in experiment [1] is 1000 to 10000 nM; in experiment [2] it was below 200 nM. In addition, in experiment [3] (setting [4]), the EC50 fell in the range of 1 to 10 µM.

With `Cn1cnnc1-c1cc(C#N)ccc1-c1cccc(-c2nc3cc(CN[C@@H]4CCC[C@@H]4O)cc(C(F)(F)F)c3[nH]2)c1` [AAW-5, 3′-(5-((((1R,2S)-2-Hydroxycyclopentyl)amino)methyl)-7-(trifluoromethyl)-1H-benzo[d]imidazol-2-yl)-2-(4-methyl-4H-1,2,4-triazol-3-yl)-[1,1′-biphenyl]-4-carbonitrile], the values for the half-maximal inhibitory concentration (IC50) in experiment [1] and in experiment [2] were 1000 to 10000 nM and below 200 nM, respectively. The EC50 in experiment [3] (setting [4]) was in the range of 0.2 to 1 µM.

`C[C@H]1CCCN(Cc2cc(C(F)(F)F)c3[nH]c(-c4cccc([C@]5(c6nncn6C)C[C@@H](C)C5)c4)nc3c2)C1` [AAX-12, 6-{[(3S)-3-Methylpiperidin-1-yl]methyl}-2-{3-[(1r,3s)-3-methyl-1-(4-methyl-1,2,4-triazol-3-yl)cyclobutyl]phenyl}-4-(trifluoromethyl)-3H-1,3-benzodiazole]: the concentration for half-maximal inhibition (IC50) in experiment [1] was 10000 to 50000 nM; in experiment [2], below 200 nM. For the same compound, the EC50 in experiment [3] (setting [4]) lay within 1 to 10 µM.

On to `C[C@H]1CCCN(Cc2cc(C(F)(F)F)c3oc(-c4cccc([C@]5(c6nncn6C)C[C@@H](C)C5)c4)nc3c2)C1` [AAY-2, 5-{[(3S)-3-Methylpiperidin-1-yl]methyl}-2-{3-[(1r,3s)-3-methyl-1-(4-methyl-1,2,4-triazol-3-yl)cyclobutyl]phenyl}-7-(trifluoromethyl)-1,3-benzoxazole], for which the IC50 was 1000 to 10000 nM in experiment [1] and below 200 nM in experiment [2]. Besides, the EC50 in experiment [3] (setting [4]) fell in the range of 1 to 10 µM.

Turning to `C[C@H]1CCCN(Cc2cc(C(F)(F)F)c3[nH]c(-c4cc(-c5ccc(F)cc5-c5nncn5C)cc(C5CC5)n4)nc3c2)C1` [AAZ-10, (S)-2-(6-Cyclopropyl-4-(4-fluoro-2-(4-methyl-4H-1,2,4-triazol-3-yl)phenyl)pyridin-2-yl)-5-((3-methylpiperidin-1-yl)methyl)-7-(trifluoromethyl)-1H-benzo[d]imidazole], the values for the IC50 in experiment [1] and in experiment [2] were 1000 to 10000 nM and below 200 nM, respectively. Besides, the EC50 in experiment [3] (setting [4]) fell in the range of 0.2 to 1 µM.

For `CO[C@H]1CCN(Cc2cc(C(F)(F)F)c3oc(-c4cccc(-c5ccc(F)cc5-c5nncn5C)c4)nc3c2)C1` [AB-2, (S)-2-(4′-Fluoro-2′-(4-methyl-4H-1,2,4-triazol-3-yl)-[1,1′-biphenyl]-3-yl)-5-((3-methoxypyrrolidin-1-yl)methyl)-7-(trifluoromethyl)benzo[d]oxazole], the IC50 in experiment [1] is 1000 to 10000 nM; in experiment [2], below 200 nM. Further, the EC50 in experiment [3] (setting [4]) was in the range of 1 to 10 µM.

In the case of `Cn1cnnc1-c1cc(F)ccc1-c1cc(C(=O)Nc2cc(CN3CCC4(CC4)C3)cc(C(F)(F)F)c2N)nc(C2CC2)c1` [ABA-1, N-(5-((5-Azaspiro[2.4]heptan-5-yl)methyl)-2-amino-3-(trifluoromethyl)phenyl)-6-cyclopropyl-4-(4-fluoro-2-(4-methyl-4H-1,2,4-triazol-3-yl)phenyl)picolinamide], the values for the 50% inhibitory concentration (IC50) in experiment [1] and in experiment [2] were 1000 to 10000 nM and below 200 nM, respectively. In experiment [3] (setting [4]), the concentration for a half-maximal effect (EC50) lay in the range of 0.2 to 1 µM.

For `Cn1cnnc1CC1(c2cccc(-c3nc4cc(CN5CCC6(CC6)C5)cc(C(F)(F)F)c4[nH]3)c2)COC1` [ABK-1, 5-((5-Azaspiro[2.4]heptan-5-yl)methyl)-2-(3-(3-((4-methyl-4H-1,2,4-triazol-3-yl)methyl)oxetan-3-yl)phenyl)-7-(trifluoromethyl)-1H-benzo[d]imidazole], the results for the IC50 in experiment [1] and in experiment [2] were 1000 to 10000 nM and 200 to 1000 nM, respectively. For the same compound, the EC50 in experiment [3] (setting [4]) fell in the range of 1 to 10 µM.

On to `Cn1cnnc1-c1cc(F)ccc1-c1cccc(-c2nc3cc(CNCC4(O)COC4)cc(C(F)(F)F)c3o2)c1` [AC-2, 3-((((2-(4′-Fluoro-2′-(4-methyl-4H-1,2,4-triazol-3-yl)-[1,1′-biphenyl]-3-yl)-7-(trifluoromethyl)benzo[d]oxazol-5-yl)methyl)amino)methyl)oxetan-3-ol], for which the IC50 is 1000 to 10000 nM in experiment [1] and below 200 nM in experiment [2]. For the same compound, the EC50 in experiment [3] (setting [4]) lay within 0.2 to 1 µM.

On to `Cn1cnnc1-c1ccccc1-c1cccc(-c2nc3cc(CN4CCC5(CC5)C4)cc(C(F)(F)F)c3[nH]2)c1` [ACF-1, 5-((5-Azaspiro[2.4]heptan-5-yl)methyl)-2-(2′-(4-methyl-4H-1,2,4-triazol-3-yl)-[1,1′-biphenyl]-3-yl)-7-(trifluoromethyl)-1H-benzo[d]imidazole], for which the IC50 in experiment [1] is 10000 to 50000 nM; in experiment [2] it was 200 to 1000 nM. Moreover, the EC50 in experiment [3] (setting [4]) fell in the range of 1 to 10 µM.

One may read the IC50 as the point on the concentration scale where inhibition reaches its midpoint. What is called EC50 is the concentration giving half of the maximal effect.
